# Reference: PubChem BioAssay AID1963432 (Molecular Pharmacology Branch, DTP, NCI, 2024)
# Test system: SYO-1 complex spheroid growth, percent test/control
# Assay: Anticancer human tumor SYO-1 cell line growth inhibition [Asc];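 note: compound exposure lasted 7 days after spheroids grew 3 days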;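 for viability, T/C: 100% = DMSO vehicle control viability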
# Conditions: for IC50: curve of first compound; for viability, T/C: stronger effect = lower value
# Method in brief: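 Complex solid-tumor spheroids incorporating human endothelial and mesenchymal stem cells received single agents or combinations over half-log dilution ranges anchored to clinical Cmax.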
smiles,measurement,setting,value
Cc1nc(N2CCC3(CC2)COC(C)C3N)c(CO)nc1Sc1ccnc(N)c1Cl (stereo unspecified) + CCN1C(C(=O)NC23CCC(C(=O)O)(CC2)CC3)C(c2cccc(Cl)c2F)C2(C(=O)Nc3cc(Cl)ccc32)C12CCCCC2,IC50,second compound 0.00949 µM,> 3 µM
same,IC50,second compound 0.03 µM,> 3 µM
same,IC50,second compound 0.0949 µM,> 3 µM
same,IC50,second compound 0.3 µM,< 0.00949 µM
same,IC50,second compound 0.949 µM,< 0.00949 µM
same,IC50,second compound 3 µM,< 0.00949 µM
same,"viability, T/C","second compound 0.00949 µM, first compound 0.00949 µM",111%
same,"viability, T/C","second compound 0.00949 µM, first compound 0.03 µM",103%
same,"viability, T/C","second compound 0.00949 µM, first compound 0.0949 µM",112%
same,"viability, T/C","second compound 0.00949 µM, first compound 0.3 µM",109%
same,"viability, T/C","second compound 0.00949 µM, first compound 0.949 µM",116%
same,"viability, T/C","second compound 0.00949 µM, first compound 3 µM",114%
same,"viability, T/C","second compound 0.03 µM, first compound 0.00949 µM",111%
same,"viability, T/C","second compound 0.03 µM, first compound 0.03 µM",103%
same,"viability, T/C","second compound 0.03 µM, first compound 0.0949 µM",108%
same,"viability, T/C","second compound 0.03 µM, first compound 0.3 µM",99.7%
same,"viability, T/C","second compound 0.03 µM, first compound 0.949 µM",117%
same,"viability, T/C","second compound 0.03 µM, first compound 3 µM",117%
same,"viability, T/C","second compound 0.0949 µM, first compound 0.00949 µM",82.8%
same,"viability, T/C","second compound 0.0949 µM, first compound 0.03 µM",81.1%
same,"viability, T/C","second compound 0.0949 µM, first compound 0.0949 µM",86.8%
same,"viability, T/C","second compound 0.0949 µM, first compound 0.3 µM",91.2%
same,"viability, T/C","second compound 0.0949 µM, first compound 0.949 µM",96.9%
same,"viability, T/C","second compound 0.0949 µM, first compound 3 µM",83.3%
same,"viability, T/C","second compound 0.3 µM, first compound 0.00949 µM",24.3%
same,"viability, T/C","second compound 0.3 µM, first compound 0.03 µM",19.9%
same,"viability, T/C","second compound 0.3 µM, first compound 0.0949 µM",23.2%
same,"viability, T/C","second compound 0.3 µM, first compound 0.3 µM",17.4%
same,"viability, T/C","second compound 0.3 µM, first compound 0.949 µM",17.4%
same,"viability, T/C","second compound 0.3 µM, first compound 3 µM",10.9%
same,"viability, T/C","second compound 0.949 µM, first compound 0.00949 µM",3.59%
same,"viability, T/C","second compound 0.949 µM, first compound 0.03 µM",2.68%
same,"viability, T/C","second compound 0.949 µM, first compound 0.0949 µM",3.26%
same,"viability, T/C","second compound 0.949 µM, first compound 0.3 µM",1.67%
same,"viability, T/C","second compound 0.949 µM, first compound 0.949 µM",1.74%
same,"viability, T/C","second compound 0.949 µM, first compound 3 µM",0.54%
same,"viability, T/C","second compound 3 µM, first compound 0.00949 µM",0.99%
same,"viability, T/C","second compound 3 µM, first compound 0.03 µM",1.08%
same,"viability, T/C","second compound 3 µM, first compound 0.0949 µM",0.94%
same,"viability, T/C","second compound 3 µM, first compound 0.3 µM",2.3%
same,"viability, T/C","second compound 3 µM, first compound 0.949 µM",0.69%
same,"viability, T/C","second compound 3 µM, first compound 3 µM",0.39%
C#Cc1c(F)ccc2cc(O)cc(-c3ncc4c(N5CC6CCC(C5)N6)nc(OCC56CCCN5CC(F)C6)nc4c3F)c12 (stereo unspecified) + CNC(C)C(=O)NC1CN(S(=O)(=O)c2cccc(S(=O)(=O)N3CCC4CCC(C(=O)NC(c5ccccc5)c5ccccc5)N4C(=O)C(NC(=O)C(C)NC)C3)c2)CCC2CCC(C(=O)NC(c3ccccc3)c3ccccc3)N2C1=O,IC50,second compound 0.00316 µM,> 10 µM
same,IC50,second compound 0.01 µM,> 10 µM
same,IC50,second compound 0.0316 µM,> 10 µM
same,IC50,second compound 0.1 µM,> 10 µM
same,IC50,second compound 0.316 µM,> 10 µM
same,IC50,second compound 1 µM,> 10 µM
same,"viability, T/C","second compound 0.00316 µM, first compound 0.0316 µM",106%
same,"viability, T/C","second compound 0.00316 µM, first compound 0.1 µM",102%
same,"viability, T/C","second compound 0.00316 µM, first compound 0.316 µM",101%
same,"viability, T/C","second compound 0.00316 µM, first compound 1 µM",103%
same,"viability, T/C","second compound 0.00316 µM, first compound 3.16 µM",110%
same,"viability, T/C","second compound 0.00316 µM, first compound 10 µM",106%
same,"viability, T/C","second compound 0.01 µM, first compound 0.0316 µM",104%
same,"viability, T/C","second compound 0.01 µM, first compound 0.1 µM",93.3%
same,"viability, T/C","second compound 0.01 µM, first compound 0.316 µM",102%
same,"viability, T/C","second compound 0.01 µM, first compound 1 µM",108%
same,"viability, T/C","second compound 0.01 µM, first compound 3.16 µM",112%
same,"viability, T/C","second compound 0.01 µM, first compound 10 µM",105%
same,"viability, T/C","second compound 0.0316 µM, first compound 0.0316 µM",96.8%
same,"viability, T/C","second compound 0.0316 µM, first compound 0.1 µM",106%
same,"viability, T/C","second compound 0.0316 µM, first compound 0.316 µM",101%
same,"viability, T/C","second compound 0.0316 µM, first compound 1 µM",106%
same,"viability, T/C","second compound 0.0316 µM, first compound 3.16 µM",106%
same,"viability, T/C","second compound 0.0316 µM, first compound 10 µM",106%
same,"viability, T/C","second compound 0.1 µM, first compound 0.0316 µM",111%
same,"viability, T/C","second compound 0.1 µM, first compound 0.1 µM",97.5%
same,"viability, T/C","second compound 0.1 µM, first compound 0.316 µM",105%
same,"viability, T/C","second compound 0.1 µM, first compound 1 µM",111%
same,"viability, T/C","second compound 0.1 µM, first compound 3.16 µM",120%
same,"viability, T/C","second compound 0.1 µM, first compound 10 µM",99.6%
same,"viability, T/C","second compound 0.316 µM, first compound 0.0316 µM",98.7%
same,"viability, T/C","second compound 0.316 µM, first compound 0.1 µM",99.1%
same,"viability, T/C","second compound 0.316 µM, first compound 0.316 µM",108%
same,"viability, T/C","second compound 0.316 µM, first compound 1 µM",108%
same,"viability, T/C","second compound 0.316 µM, first compound 3.16 µM",116%
same,"viability, T/C","second compound 0.316 µM, first compound 10 µM",102%
same,"viability, T/C","second compound 1 µM, first compound 0.0316 µM",99.7%
same,"viability, T/C","second compound 1 µM, first compound 0.1 µM",106%
same,"viability, T/C","second compound 1 µM, first compound 0.316 µM",106%
same,"viability, T/C","second compound 1 µM, first compound 1 µM",103%
same,"viability, T/C","second compound 1 µM, first compound 3.16 µM",106%
same,"viability, T/C","second compound 1 µM, first compound 10 µM",105%
Cc1nc(N2CCC3(CC2)COC(C)C3N)c(CO)nc1Sc1ccnc(N)c1Cl (stereo unspecified) + CNC(C)C(=O)NC1CN(S(=O)(=O)c2cccc(S(=O)(=O)N3CCC4CCC(C(=O)NC(c5ccccc5)c5ccccc5)N4C(=O)C(NC(=O)C(C)NC)C3)c2)CCC2CCC(C(=O)NC(c3ccccc3)c3ccccc3)N2C1=O,IC50,second compound 0.00316 µM,> 3 µM
same,IC50,second compound 0.01 µM,> 3 µM
same,IC50,second compound 0.0316 µM,> 3 µM
same,IC50,second compound 0.1 µM,> 3 µM
same,IC50,second compound 0.316 µM,> 3 µM
same,IC50,second compound 1 µM,> 3 µM
same,"viability, T/C","second compound 0.00316 µM, first compound 0.00949 µM",107%
same,"viability, T/C","second compound 0.00316 µM, first compound 0.03 µM",105%
same,"viability, T/C","second compound 0.00316 µM, first compound 0.0949 µM",109%
same,"viability, T/C","second compound 0.00316 µM, first compound 0.3 µM",96.5%
same,"viability, T/C","second compound 0.00316 µM, first compound 0.949 µM",106%
same,"viability, T/C","second compound 0.00316 µM, first compound 3 µM",102%
same,"viability, T/C","second compound 0.01 µM, first compound 0.00949 µM",105%
same,"viability, T/C","second compound 0.01 µM, first compound 0.03 µM",95.8%
same,"viability, T/C","second compound 0.01 µM, first compound 0.0949 µM",101%
same,"viability, T/C","second compound 0.01 µM, first compound 0.3 µM",105%
same,"viability, T/C","second compound 0.01 µM, first compound 0.949 µM",110%
same,"viability, T/C","second compound 0.01 µM, first compound 3 µM",105%
same,"viability, T/C","second compound 0.0316 µM, first compound 0.00949 µM",111%
same,"viability, T/C","second compound 0.0316 µM, first compound 0.03 µM",104%
same,"viability, T/C","second compound 0.0316 µM, first compound 0.0949 µM",102%
same,"viability, T/C","second compound 0.0316 µM, first compound 0.3 µM",106%
same,"viability, T/C","second compound 0.0316 µM, first compound 0.949 µM",115%
same,"viability, T/C","second compound 0.0316 µM, first compound 3 µM",108%
same,"viability, T/C","second compound 0.1 µM, first compound 0.00949 µM",109%
same,"viability, T/C","second compound 0.1 µM, first compound 0.03 µM",103%
same,"viability, T/C","second compound 0.1 µM, first compound 0.0949 µM",104%
same,"viability, T/C","second compound 0.1 µM, first compound 0.3 µM",116%
same,"viability, T/C","second compound 0.1 µM, first compound 0.949 µM",110%
same,"viability, T/C","second compound 0.1 µM, first compound 3 µM",110%
same,"viability, T/C","second compound 0.316 µM, first compound 0.00949 µM",105%
same,"viability, T/C","second compound 0.316 µM, first compound 0.03 µM",107%
same,"viability, T/C","second compound 0.316 µM, first compound 0.0949 µM",108%
same,"viability, T/C","second compound 0.316 µM, first compound 0.3 µM",107%
same,"viability, T/C","second compound 0.316 µM, first compound 0.949 µM",119%
same,"viability, T/C","second compound 0.316 µM, first compound 3 µM",102%
same,"viability, T/C","second compound 1 µM, first compound 0.00949 µM",103%
same,"viability, T/C","second compound 1 µM, first compound 0.03 µM",109%
same,"viability, T/C","second compound 1 µM, first compound 0.0949 µM",104%
same,"viability, T/C","second compound 1 µM, first compound 0.3 µM",103%
same,"viability, T/C","second compound 1 µM, first compound 0.949 µM",115%
same,"viability, T/C","second compound 1 µM, first compound 3 µM",107%
